{"source": "paper PMC5010537", "about": "“Purification and characterization of laccase from Marasmius species BBKAV79 and effective decolorization of selected textile dyes” (3 Biotech, 2016)", "system": "T1, laccase from Marasmius sp. BBKAV79", "T1 construct": "gene benzenediol:oxygen oxidoreductase; native extracellular enzyme purified from culture supernatant (ammonium sulfate, Sephadex G-100, DEAE-cellulose); monomer, ~75 kDa by native PAGE", "assay": "absorbance at […] nm, Lineweaver-Burk plot", "type": "biochemical", "conditions": "100 mM sodium acetate buffer pH 5.5; guaiacol 0.18-10 mM; free enzyme", "source_text": "BBKAV79 | K m and V max of purified laccase from Marasmius sp.", "data": [{"compound": "COc1ccccc1O", "note": "[guaiacol]", "values": [{"measurement": "Km", "value": 3.03, "unit": "mM"}]}]}
